“Also recorded” adds a separate entry of the source.
How the values were obtained:
[1] = molecular target: opioid (non-selective) receptor; assay: Receptor binding assay, opioid (non-selective) (antagonist radioligand)
Excerpt: (§1) Receptor binding assays (Table 1 and FIGS. 1-4)

[2] = molecular target: T1, human delta 2 (DOP) receptor (Homo sapiens, UniProt P41143); assay: Receptor binding assay, δ2 (DOP) (h) (agonist radioligand)
T1 construct: Cerep
Excerpt: as §1

[3] = molecular target: T2, kappa (KOP) receptor (Rattus norvegicus, UniProt P34975); assay: Receptor binding assay, κ (KOP) (agonist radioligand)
T2 construct: Cerep
Excerpt: as §1

[4] = molecular target: T3, human mu (MOP) receptor (Homo sapiens, UniProt P35372); assay: Receptor binding assay, μ (MOP) (h) (agonist radioligand)
T3 construct: Cerep
Excerpt: as §1

[5] = molecular target: mu opioid receptor (Homo sapiens, UniProt P35372); assay: Cellular functional assay, mu opioid receptor; type: cell-based; conditions: EC50 values were not determined
[6] = molecular target: kappa opioid receptor (Homo sapiens, UniProt P41145); assay: Cellular functional assay, kappa opioid receptor; type: cell-based; conditions: EC50 values were not determined
[7] = In vivo pharmacokinetics and brain partition study; conditions: rats, fasted, single 1 mg/kg iv dose
Procedure: single 1 mg/kg iv dose administered in rats under fasted conditions plasma concentrations determined at 10 time points (2 mins -24 hrs) brain partition ratio determined at 1 and 4 hours

T3 sequence (P35372 whole entry): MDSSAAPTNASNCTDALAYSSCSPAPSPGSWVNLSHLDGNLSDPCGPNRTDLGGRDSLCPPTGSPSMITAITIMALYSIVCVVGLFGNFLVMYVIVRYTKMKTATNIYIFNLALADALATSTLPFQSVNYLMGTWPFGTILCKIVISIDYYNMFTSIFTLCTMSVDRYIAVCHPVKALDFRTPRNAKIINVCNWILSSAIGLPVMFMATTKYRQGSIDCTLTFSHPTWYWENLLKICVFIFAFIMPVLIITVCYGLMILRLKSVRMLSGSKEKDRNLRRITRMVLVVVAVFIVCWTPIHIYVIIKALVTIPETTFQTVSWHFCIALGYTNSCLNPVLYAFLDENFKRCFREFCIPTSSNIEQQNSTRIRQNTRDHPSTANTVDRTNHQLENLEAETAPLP
T1 sequence (P41143 whole entry): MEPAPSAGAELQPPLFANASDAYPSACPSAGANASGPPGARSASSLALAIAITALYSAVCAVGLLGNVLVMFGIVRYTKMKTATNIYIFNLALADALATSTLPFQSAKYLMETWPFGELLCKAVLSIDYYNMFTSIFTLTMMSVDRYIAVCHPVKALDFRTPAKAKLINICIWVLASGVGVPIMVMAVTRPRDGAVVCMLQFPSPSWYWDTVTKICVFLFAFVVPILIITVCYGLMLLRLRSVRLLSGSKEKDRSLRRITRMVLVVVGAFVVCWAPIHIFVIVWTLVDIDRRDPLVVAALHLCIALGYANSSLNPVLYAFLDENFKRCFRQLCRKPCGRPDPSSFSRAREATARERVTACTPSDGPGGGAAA
T2 sequence (P34975 whole entry): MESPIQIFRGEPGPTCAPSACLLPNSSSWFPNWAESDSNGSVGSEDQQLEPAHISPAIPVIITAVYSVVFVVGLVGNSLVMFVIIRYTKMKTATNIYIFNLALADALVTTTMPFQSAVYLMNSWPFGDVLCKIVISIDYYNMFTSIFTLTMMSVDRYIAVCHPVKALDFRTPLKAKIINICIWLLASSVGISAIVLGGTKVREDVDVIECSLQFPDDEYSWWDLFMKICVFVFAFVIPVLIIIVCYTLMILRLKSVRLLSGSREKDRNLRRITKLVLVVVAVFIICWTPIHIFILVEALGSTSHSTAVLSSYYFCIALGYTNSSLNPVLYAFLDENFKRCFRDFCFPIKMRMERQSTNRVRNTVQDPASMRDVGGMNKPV
mu opioid receptor, sequence (P35372 whole entry): as the sequence (P35372 whole entry) above
kappa opioid receptor, sequence (P41145 whole entry): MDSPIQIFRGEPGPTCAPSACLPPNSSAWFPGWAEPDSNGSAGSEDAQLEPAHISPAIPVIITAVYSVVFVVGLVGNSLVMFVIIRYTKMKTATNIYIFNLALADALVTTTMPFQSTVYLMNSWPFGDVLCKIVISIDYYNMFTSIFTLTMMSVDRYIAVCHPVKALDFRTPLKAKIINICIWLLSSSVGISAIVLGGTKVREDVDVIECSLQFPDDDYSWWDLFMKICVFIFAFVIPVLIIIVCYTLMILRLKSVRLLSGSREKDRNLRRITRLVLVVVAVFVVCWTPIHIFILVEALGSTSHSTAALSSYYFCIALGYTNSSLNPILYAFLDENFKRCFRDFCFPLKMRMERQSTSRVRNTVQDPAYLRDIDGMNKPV

## CN1CC[C@]23c4c5ccc(F)c4O[C@H]2[C@@H](O)C=C[C@H]3[C@H]1C5 [F-morphine]
[1]
  IC50: 0.8 µM
  Ki: 0.58 µM
[2]
  Delta: binding: no observed binding; also recorded: no significant binding up to 10 uM
  IC50: > 10 µM
[3]
  IC50: 8.5 µM
  Ki: 5.6 µM
[3]; agonist radioligand
  nH: 1.1
[4]
  IC50: 0.37 µM
  Ki: 0.15 µM
[4]; agonist radioligand
  nH: 0.9
[5]
  function at mu opioid receptor: agonist
[6]
  function at kappa opioid receptor: agonist
[7]; rat, brain/plasma, at 1 and 4 hours, read-out: brain/plasma ratio
  Kp at 4 h: 2 to 3
[7]
  brain partition (in words): partitions well into the brain
